The source of these data is ChEMBL document CHEMBL1268919, “Berberine derivatives, with substituted amino groups linked at the 9-position, as inhibitors of acetylcholinesterase/butyrylcholinesterase” (Bioorg Med Chem Lett, 2010).

For orientation: IC50 means the concentration needed to halve the response being measured. A higher IC50 goes with weaker potency in that assay.

The structures appear in SMILES notation. The source made the active and inactive calls. No cut-off for these calls is given here.

In the first assay the target is Acetylcholinesterase (Electrophorus electricus, UniProt O42275).
Chain of Acetylcholinesterase (O42275 whole entry): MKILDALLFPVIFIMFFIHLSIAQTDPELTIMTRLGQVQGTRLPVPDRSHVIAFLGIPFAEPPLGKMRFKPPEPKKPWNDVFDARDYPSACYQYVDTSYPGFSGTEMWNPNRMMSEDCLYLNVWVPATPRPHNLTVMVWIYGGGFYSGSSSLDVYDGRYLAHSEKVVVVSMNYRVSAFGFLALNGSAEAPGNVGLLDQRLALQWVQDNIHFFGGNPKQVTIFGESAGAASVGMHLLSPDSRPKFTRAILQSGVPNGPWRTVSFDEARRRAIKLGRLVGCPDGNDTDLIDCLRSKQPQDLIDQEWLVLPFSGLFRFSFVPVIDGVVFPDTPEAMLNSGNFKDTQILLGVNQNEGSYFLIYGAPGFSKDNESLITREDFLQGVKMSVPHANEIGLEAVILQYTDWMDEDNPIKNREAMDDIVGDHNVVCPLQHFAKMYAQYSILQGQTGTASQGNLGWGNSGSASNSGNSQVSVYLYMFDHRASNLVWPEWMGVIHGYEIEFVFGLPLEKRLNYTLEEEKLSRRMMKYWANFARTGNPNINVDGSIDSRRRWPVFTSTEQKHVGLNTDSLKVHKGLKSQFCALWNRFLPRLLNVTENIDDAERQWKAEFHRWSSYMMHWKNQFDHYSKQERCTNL
Description: Inhibition of electric eel AChE after 15 mins by Ellman's method using acetylcholine as substrate
Compound `COc1ccc2cc3[n+](cc2c1OCCCN1CCCC1)CCc1cc2c(cc1-3)OCO2` had an IC50 of 93 nM.
For `COc1ccc2cc3[n+](cc2c1OCCCN1CCCCC1)CCc1cc2c(cc1-3)OCO2`, the IC50 amounted to 52 nM.
The same measure, in the same setting: in the case of `CCCN(CCC)CCCOc1c(OC)ccc2cc3[n+](cc12)CCc1cc2c(cc1-3)OCO2` it was 310 nM; in that of `COc1ccc2cc3[n+](cc2c1OCCCO)CCc1cc2c(cc1-3)OCO2`, 2370 nM.
Compound `COc1ccc2cc3[n+](cc2c1OCCN1CCOCC1)CCc1cc2c(cc1-3)OCO2` registered a concentration for half-maximal inhibition (IC50) of 1800 nM.
Same read-out and setting: in the case of `COc1ccc2cc3[n+](cc2c1OCCN(C)C)CCc1cc2c(cc1-3)OCO2` it was 1740 nM; in that of `COc1ccc2cc3[n+](cc2c1OCCCN1CCOCC1)CCc1cc2c(cc1-3)OCO2`, 456 nM.
Same read-out and setting: in the case of `COc1ccc2cc3[n+](cc2c1OCCCN(C)C)CCc1cc2c(cc1-3)OCO2` it was 201 nM.
The same measure, in the same setting: in the case of `COc1ccc2cc3[n+](cc2c1OCCCNC1CCCCC1)CCc1cc2c(cc1-3)OCO2` it was 20 nM.
As for `CCN(CC)CCCOc1c(OC)ccc2cc3[n+](cc12)CCc1cc2c(cc1-3)OCO2`, the IC50 amounted to 105 nM.

The target in a further assay is Acetylcholinesterase (Electrophorus electricus) (UniProt O42275). Kind of assay: Mixed-type inhibition of electric eel AChE after 15 mins by Lineweaver-Burke plot analysis.
Chain of Acetylcholinesterase (Electrophorus electricus) (O42275 24-633 limits assumed): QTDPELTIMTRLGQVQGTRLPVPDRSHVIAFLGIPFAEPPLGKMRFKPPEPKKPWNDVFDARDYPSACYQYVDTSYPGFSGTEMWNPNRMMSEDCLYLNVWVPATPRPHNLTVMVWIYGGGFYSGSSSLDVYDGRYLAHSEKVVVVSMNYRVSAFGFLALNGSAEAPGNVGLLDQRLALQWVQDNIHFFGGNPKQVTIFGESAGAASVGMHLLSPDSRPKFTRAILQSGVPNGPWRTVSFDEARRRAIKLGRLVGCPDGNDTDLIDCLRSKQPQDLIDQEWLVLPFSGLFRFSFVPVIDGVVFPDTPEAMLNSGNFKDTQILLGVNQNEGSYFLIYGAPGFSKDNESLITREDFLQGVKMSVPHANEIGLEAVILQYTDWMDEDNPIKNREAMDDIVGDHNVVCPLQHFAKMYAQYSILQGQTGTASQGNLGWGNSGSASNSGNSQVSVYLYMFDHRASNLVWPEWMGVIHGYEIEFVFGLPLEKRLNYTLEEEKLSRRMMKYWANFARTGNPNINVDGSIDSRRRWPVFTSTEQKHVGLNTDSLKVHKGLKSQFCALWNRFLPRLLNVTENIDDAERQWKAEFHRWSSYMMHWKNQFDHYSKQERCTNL
For `COc1ccc2cc3[n+](cc2c1OCCCNC1CCCCC1)CCc1cc2c(cc1-3)OCO2`, the inhibition entry is “Active”.
